Reference: PubChem BioAssay AID328 (DTP/NCI, 2004)
“And” between values parts separate entries of the source, which are not always exact repeats. Equal values may be shown once. Toxic doses and inconclusive results are not listed. Positions of bridges follow the written chain, without caps; N, C: chain ends. Non-standard residues stand in square brackets, D forms with d. Residues, ends and D or L forms follow the SMILES beside them. NMeV = CN[CH](C(=O)O)C(C)C; Sar = CNCC(=O)O

Test system: BDF1 mice, P388 leukemia ip, median survival T/C
Assay: NCI In Vivo Anticancer Drug Screen. Data for tumor model P388 Leukemia (intraperitoneal) in B6D2F1 (BDF1) mice
Conditions: endpoint: median survival time, higher = longer survival
Procedure, shortened: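 Each value expresses how treatment altered survival: treated-mouse outcome over vehicle-mouse outcome, both groups bearing the transplanted tumour.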

[1] = dose: 25.0 mg/kg/injection, schedule: Q01DX009 (ip), vehicle: saline with Tween-80
[2] = dose: 50.0 mg/kg/injection, schedule: Q01DX009 (ip), vehicle: saline with Tween-80
[3] = dose: 100.0 mg/kg/injection, schedule: Q01DX009 (ip), vehicle: saline with Tween-80
[4] = dose: 200.0 mg/kg/injection, schedule: Q01DX009 (ip), vehicle: saline with Tween-80
[5] = dose: 100.0 mg/kg/injection, schedule: Q04DX003 (ip), vehicle: Klucel (hydroxypropylcellulose) (HPC)
[6] = dose: 200.0 mg/kg/injection, schedule: Q04DX003 (ip), vehicle: Klucel (hydroxypropylcellulose) (HPC)
[7] = dose: 400.0 mg/kg/injection, schedule: Q04DX003 (ip), vehicle: Klucel (hydroxypropylcellulose) (HPC)
[8] = dose: 12.5 mg/kg/injection, schedule: Q01DX009 (ip), vehicle: saline
[9] = dose: 25.0 mg/kg/injection, schedule: Q01DX009 (ip), vehicle: saline
[10] = dose: 50.0 mg/kg/injection, schedule: Q01DX009 (ip), vehicle: saline
[11] = dose: 100.0 mg/kg/injection, schedule: Q01DX009 (ip), vehicle: saline
[12] = dose: 100.0 mg/kg/injection, schedule: Q04DX003 (ip), vehicle: saline
[13] = dose: 200.0 mg/kg/injection, schedule: Q04DX003 (ip), vehicle: saline
[14] = dose: 100.0 mg/kg/injection, schedule: Q01DX009 (ip), vehicle: Klucel (hydroxypropylcellulose) (HPC)
[15] = dose: 200.0 mg/kg/injection, schedule: Q01DX009 (ip), vehicle: Klucel (hydroxypropylcellulose) (HPC)
[16] = dose: 100.0 mg/kg/injection, schedule: Q04DX003 (ip), vehicle: saline with Tween-80
[17] = dose: 200.0 mg/kg/injection, schedule: Q04DX003 (ip), vehicle: saline with Tween-80
[18] = dose: 400.0 mg/kg/injection, schedule: Q04DX003 (ip), vehicle: saline with Tween-80

CC(C)C1NC(=O)C(N)C(C)OC(=O)C(C(C)C)N(C)C(=O)CN(C)C(=O)C2CCCN2C1=O (configuration not stated) (tested in a mixture with another compound) (H-TVP[Sar][NMeV]; ester 1-C; configuration not given here)
T/C (dose: 0.05 mg/kg/injection, schedule: Q01DX009 (ip), vehicle: saline + alcohol): 201 % of control | T/C (dose: 0.1 mg/kg/injection, schedule: Q01DX009 (ip), vehicle: saline + alcohol): 260 % of control | T/C (dose: 0.2 mg/kg/injection, schedule: Q01DX009 (ip), vehicle: saline + alcohol): 531 % of control | T/C (dose: 0.3 mg/kg/injection, schedule: Q04DX003 (ip), vehicle: saline + alcohol): 239 % of control | T/C (dose: 0.4 mg/kg/injection, schedule: Q01DX009 (ip), vehicle: saline + alcohol): 96 % of control | T/C (dose: 0.6 mg/kg/injection, schedule: Q04DX003 (ip), vehicle: saline + alcohol): 281 % of control and 187 % of control | T/C (dose: 1.2 mg/kg/injection, schedule: Q04DX003 (ip), vehicle: saline + alcohol): 107 % of control

CC(C)CN(CC(C)C)C(=O)c1ccc(Cl)c(Cl)c1
T/C [1]: 91 % of control | T/C [2]: 103 % of control | T/C [3]: 107 % of control | T/C [4]: 94 % of control

O=C(Nc1ccc(C(=O)Nc2ccc(C3=NCCCN3)cc2)cc1)Nc1ccc(C2=NCCCN2)cc1
T/C (dose: 16.5 mg/kg/injection, schedule: Q04DX003 (ip), vehicle: saline with Tween-80): 122 % of control and 204 % of control | T/C (dose: 25.0 mg/kg/injection, schedule: Q04DX003 (ip), vehicle: saline with Tween-80): 245 % of control and 163 % of control | T/C (dose: 37.5 mg/kg/injection, schedule: Q04DX003 (ip), vehicle: saline with Tween-80): 159 % of control and 186 % of control

CC(=O)OCC(=O)[C@@]1(O)CC[C@H]2[C@@H]3CCC4=CC(=O)C=C[C@]4(C)[C@H]3C(=O)C[C@@]21C
T/C [1]: 109 % of control | T/C [2]: 122 % of control | T/C (dose: 63.75 mg/kg/injection, schedule: Q01DX009 (ip), vehicle: Klucel (hydroxypropylcellulose) (HPC)): 113 % of control | T/C [3]: 118 % of control | T/C [5]: 100 % of control | T/C (dose: 127.5 mg/kg/injection, schedule: Q01DX009 (ip), vehicle: Klucel (hydroxypropylcellulose) (HPC)): 122 % of control | T/C [6]: 104 % of control | T/C (dose: 255.0 mg/kg/injection, schedule: Q01DX009 (ip), vehicle: Klucel (hydroxypropylcellulose) (HPC)): 100 % of control | T/C [7]: 104 % of control

Cc1cc(Cl)ccc1NC(=O)Oc1nc2ccccc2o1
T/C [2]: 123 % of control | T/C [3]: 106 % of control | T/C [4]: 117 % of control

CC(C)n1cc2c(N)ncnc2n1
T/C [8]: 92 % of control | T/C [9]: 92 % of control | T/C [10]: 100 % of control and 120 % of control | T/C [11]: 100 % of control | T/C [12]: 92 % of control | T/C [13]: 100 % of control

CC1CN1P1(N2CC2C)=NP(N2CC2C)(N2CC2C)=NP(N2CC2C)(N2CC2C)=N1 (configuration not stated)
T/C (dose: 4.4 mg/kg/injection, schedule: Q01DX009 (ip), vehicle: saline): 122 % of control | T/C (dose: 6.6 mg/kg/injection, schedule: Q01DX009 (ip), vehicle: saline): 124 % of control | T/C (dose: 15.0 mg/kg/injection, schedule: Q01DX009 (ip), vehicle: saline): 161 % of control | T/C (dose: 16.5 mg/kg/injection, schedule: Q01DX009 (ip), vehicle: saline): 155 % of control | T/C [9]: 160 % of control and 164 % of control | T/C (dose: 25.0 mg/kg/injection, schedule: Q04DX003 (ip), vehicle: saline): 114 % of control | T/C (dose: 37.5 mg/kg/injection, schedule: Q01DX009 (ip), vehicle: saline): 169 % of control | T/C [10]: 203 % of control | T/C [12]: 166 % of control and 214 % of control | T/C [13]: 102 % of control

COc1ccc(C(=O)/C(Br)=C/C(=O)O)cc1
T/C (dose: 6.3 mg/kg/injection, schedule: Q01DX009 (ip), vehicle: saline): 106 % of control | T/C (dose: 12.5 mg/kg/injection, schedule: Q01DX009 (ip), vehicle: water): 120 % of control | T/C (dose: 25.0 mg/kg/injection, schedule: Q01DX009 (ip), vehicle: water): 150 % of control | T/C (dose: 25.0 mg/kg/injection, schedule: Q04DX002 (ip), vehicle: saline): 108 % of control and 109 % of control | T/C (dose: 50.0 mg/kg/injection, schedule: Q01DX009 (ip), vehicle: water): 100 % of control | T/C (dose: 50.0 mg/kg/injection, schedule: Q04DX002 (ip), vehicle: saline): 116 % of control and 118 % of control | T/C (dose: 100.0 mg/kg/injection, schedule: Q04DX002 (ip), vehicle: saline): 150 % of control

CCCCCCCCCC(=O)CCCCCCC
T/C (dose: 50.0 mg/kg/injection, schedule: Q01DX009 (ip), vehicle: other): 100 % of control | T/C (dose: 100.0 mg/kg/injection, schedule: Q01DX009 (ip), vehicle: other): 100 % of control | T/C (dose: 100.0 mg/kg/injection, schedule: Q04DX003 (ip), vehicle: other): 100 % of control | T/C (dose: 118.0 mg/kg/injection, schedule: Q04DX003 (ip), vehicle: other): 104 % of control | T/C (dose: 178.0 mg/kg/injection, schedule: Q04DX003 (ip), vehicle: other): 109 % of control and 118 % of control | T/C (dose: 200.0 mg/kg/injection, schedule: Q01DX009 (ip), vehicle: other): 104 % of control | T/C (dose: 266.0 mg/kg/injection, schedule: Q04DX003 (ip), vehicle: other): 95 % of control | T/C (dose: 400.0 mg/kg/injection, schedule: Q01DX009 (ip), vehicle: other): 95 % of control | T/C (dose: 400.0 mg/kg/injection, schedule: Q04DX003 (ip), vehicle: other): 109 % of control and 118 % of control

CCCCCCCCCCCC(=O)CC(SCC)c1ccccc1 (configuration not stated)
T/C [2]: 96 % of control | T/C [3]: 87 % of control | T/C [4]: 89 % of control

CCCCC[C@H](CN(C)C)[C@H](O)/C=C/c1ccc(Cl)cc1
T/C [8]: 101 % of control | T/C [9]: 112 % of control | T/C [10]: 108 % of control

Cc1ccccc1Nc1n[nH]c(=S)s1
T/C [2]: 95 % of control | T/C [3]: 95 % of control | T/C [4]: 104 % of control

C=CCN(CC=C)CCN(CC)CC
T/C (dose: 6.25 mg/kg/injection, schedule: Q01DX009 (ip), vehicle: saline): 111 % of control | T/C [8]: 101 % of control | T/C [9]: 109 % of control | T/C [10]: 101 % of control

Cc1ccc(C(Br)C2=CC(C)(C)c3ccccc3C2=O)cc1 (configuration not stated)
T/C [14]: 118 % of control | T/C [5]: 95 % of control | T/C [15]: 90 % of control and 95 % of control | T/C [6]: 113 % of control | T/C (dose: 300.0 mg/kg/injection, schedule: Q01DX009 (ip), vehicle: Klucel (hydroxypropylcellulose) (HPC)): 113 % of control | T/C (dose: 400.0 mg/kg/injection, schedule: Q01DX009 (ip), vehicle: Klucel (hydroxypropylcellulose) (HPC)): 100 % of control | T/C [7]: 113 % of control

CNC(=O)c1ccc(C(=O)NC)cc1
T/C [16]: 100 % of control | T/C [17]: 100 % of control | T/C [18]: 109 % of control

N#CCCN1c2ccccc2Sc2ccccc21
T/C (dose: 50.0 mg/kg/injection, schedule: Q01DX009 (ip), vehicle: Klucel (hydroxypropylcellulose) (HPC)): 110 % of control | T/C [14]: 105 % of control | T/C [15]: 110 % of control

Cc1c(Cl)cccc1N1C(=O)CC(Sc2ccccc2N)C1=O (configuration not stated)
T/C [3]: 110 % of control | T/C [16]: 95 % of control | T/C [4]: 105 % of control | T/C [17]: 104 % of control | T/C (dose: 400.0 mg/kg/injection, schedule: Q01DX009 (ip), vehicle: saline with Tween-80): 105 % of control | T/C [18]: 109 % of control

CC(C)(O)c1ccccc1S(=O)(=O)c1ccccc1C(C)(C)O
T/C (dose: 100.0 mg/kg/injection, schedule: Q04DX002 (ip), vehicle: saline with Tween-80): 94 % of control | T/C (dose: 200.0 mg/kg/injection, schedule: Q04DX002 (ip), vehicle: saline with Tween-80): 93 % of control | T/C (dose: 400.0 mg/kg/injection, schedule: Q04DX002 (ip), vehicle: saline with Tween-80): 89 % of control

CC(C)SC=O
T/C [9]: 100 % of control | T/C [10]: 101 % of control | T/C (dose: 50.0 mg/kg/injection, schedule: Q04DX003 (ip), vehicle: saline): 101 % of control | T/C [11]: 92 % of control and 97 % of control | T/C [12]: 109 % of control | T/C (dose: 200.0 mg/kg/injection, schedule: Q01DX009 (ip), vehicle: saline): 86 % of control | T/C [13]: 98 % of control | T/C (dose: 400.0 mg/kg/injection, schedule: Q01DX009 (ip), vehicle: saline): 97 % of control and 118 % of control | T/C (dose: 400.0 mg/kg/injection, schedule: Q04DX003 (ip), vehicle: saline): 103 % of control
